Literature values, collected in patent US11306114B2, “Process for separation, isolation and characterization of steviol glycosides” (Heartland Consumer Products, LLC, priority 2014, dated 2022).
Where two headings read alike, the source gives them in different places.

Experiments:
[1] = for Sweetness Intensity: relative to an equal weight of sucrose, data from Tanaka, Pure & Appl. Chem.
[2] = subjective relative ranking; data from Tanaka, Pure & Appl. Chem.
[3] = carbonated beverages (Chang et al. 1983) / general statement
[4] = literature statements

Compound: C=C1C[C@@]23CC[C@H]4[C@@](C)(CCC[C@@]4(C)C(=O)O)[C@@H]2CC[C@]1(O[C@@H]1O[C@H](CO)[C@@H](O)[C@H](O)[C@H]1O)C3 [steviolmonoside]
- Sweetness Intensity [1]: 40
- Sweetness Quality [2]: −3

Compound: C=C1C[C@@]23CC[C@H]4[C@@](C)(CCC[C@@]4(C)C(=O)O[C@@H]4O[C@H](CO)[C@@H](O)[C@H](O)[C@H]4O)[C@@H]2CC[C@]1(O[C@@H]1O[C@H](CO)[C@@H](O)[C@H](O)[C@H]1O[C@@H]1O[C@H](CO)[C@@H](O)[C@H](O)[C@H]1O)C3 [stevioside, 13-[(2-O-β-D-glucopyranosyl-α-D-glucopyranosyl)oxy]-kaur-16-en-18-oic acid β-D-glucopyranosyl ester]
- Sweetness Intensity [1]: 145
- Sweetness Quality [2]: 0
- heat and pH stability [3]: heat and pH stability
- taste attributes [4]: metallic and bitter notes

Compound: rebaudioside B
- Sweetness Intensity [1]: 300
- Sweetness Quality [2]: 3

Compound: C=C1C[C@@]23CC[C@H]4[C@@](C)(CCC[C@@]4(C)C(=O)O)[C@@H]2CC[C@]1(O[C@@H]1O[C@H](CO)[C@@H](O)[C@H](O)[C@H]1O[C@@H]1O[C@H](CO)[C@@H](O)[C@H](O)[C@H]1O)C3 [steviolbioside]
- Sweetness Intensity [1]: 40
- Sweetness Quality [2]: −3

Compound: C=C1C[C@@]23CC[C@H]4[C@@](C)(CCC[C@@]4(C)C(=O)O[C@@H]4O[C@H](CO)[C@@H](O)[C@H](O)[C@H]4O[C@@H]4O[C@H](CO)[C@@H](O)[C@H](O)[C@H]4O)[C@@H]2CC[C@]1(O[C@@H]1O[C@H](CO)[C@@H](O)[C@H](O[C@@H]2O[C@H](CO)[C@@H](O)[C@H](O)[C@H]2O)[C@H]1O[C@@H]1O[C@H](CO)[C@@H](O)[C@H](O)[C@H]1O)C3 [rebaudioside-D, rebaudioside D]
- Sweetness Intensity [1]: 300
- Sweetness Quality [2]: 3

Compound: C=C1C[C@@]23CC[C@H]4[C@@](C)(CCC[C@@]4(C)C(=O)O[C@@H]4O[C@H](CO)[C@@H](O)[C@H](O)[C@H]4O)[C@@H]2CC[C@]1(O[C@@H]1O[C@H](CO)[C@@H](O)[C@H](O)[C@H]1O[C@@H]1O[C@@H](C)[C@H](O)[C@@H](O)[C@H]1O)C3 [dulcoside-A, dulcoside A]
- times sweeter than sucrose ([1]; general statements in text, varies with temperature and viscosity of the carrier medium): about 30 times
- Sweetness Intensity [1]: 70
- Sweetness Quality [2]: −2

Compound: rebaudioside C [rebaudioside-C]
- Sweetness Intensity [1]: 200
- Sweetness Quality [2]: −1

Compound: C=C1C[C@@]23CC[C@H]4[C@@](C)(CCC[C@@]4(C)C(=O)O[C@@H]4O[C@H](CO)[C@@H](O)[C@H](O)[C@H]4O)[C@@H]2CC[C@]1(O[C@@H]1O[C@H](CO)[C@@H](O)[C@H](O)[C@H]1O)C3 [rubusoside]
- Sweetness Intensity [1]: 115
- Sweetness Quality [2]: −2

Compound: C=C1C[C@@]23CC[C@H]4[C@@](C)(CCC[C@@]4(C)C(=O)O[C@@H]4O[C@H](CO)[C@@H](O)[C@H](O)[C@H]4O)[C@@H]2CC[C@]1(O[C@@H]1O[C@H](CO)[C@@H](O)[C@H](O[C@@H]2O[C@H](CO)[C@@H](O)[C@H](O)[C@H]2O)[C@H]1O[C@@H]1O[C@H](CO)[C@@H](O)[C@H](O)[C@H]1O)C3 [rebaudioside-A, rebaudioside A]
- Sweetness Intensity [1]: 250
- Sweetness Quality [2]: 2
- heat and pH stability [3]: heat and pH stability
- taste attributes ([4]; listed as Rebaudioside A): the least astringent, the least bitter, and the least persistent aftertaste
- taste attributes ([4]; listed as rebaudioside A): metallic and bitter notes

Compound: C=C1C[C@@]23CC[C@H]4[C@@](C)(CCC[C@@]4(C)C(=O)O[C@@H]4O[C@H](CO)[C@@H](O)[C@H](O)[C@H]4O[C@@H]4O[C@H](CO)[C@@H](O)[C@H](O)[C@H]4O)[C@@H]2CC[C@]1(O[C@@H]1O[C@H](CO)[C@@H](O)[C@H](O)[C@H]1O[C@@H]1O[C@H](CO)[C@@H](O)[C@H](O)[C@H]1O)C3 [rebaudioside-E, rebaudioside E]
- Sweetness Intensity [1]: 200
- Sweetness Quality [2]: 1
